Test results as given in patent EP1472347B1, “IMPROVED PROTEIN EXPRESSION IN BACILLUS SUBTILIS” (Danisco US Inc., priority 2002, dated 2003).
No end group written: not given here.

System: aprE transcription
Experiment: β-galactosidase assay of the aprE-lacZ transcriptional fusion with synthetic Phr pentapeptides added to the medium
Format: cell-based, B. subtilis AL
Settings: for aprE transcription (β-galactosidase activity, relative to wild-type): 10 µM pentapeptide in TY medium at 37°C, 4 hours after transition point between exponential and post-exponential growth, strain grown without Phr peptides (WT) set to 100%
Description: Figure 1 provides a bar graph depicting the different effects of Phr pentapeptides on aprE transcription. The transcription of the aprE-IacZ gene fusion in B. subtilis AL grown in TY medium at 37°C in the presence of 10 µM of one of the following pentapeptides (see Table II): PhrA (A), PhrC, (C), PhrE (E), PhrF (F), PhrG (G), PhrI (I) or PhrK (K), or in the absence of pentapeptides (-), was measured 4 hours after the transition point between the exponential and post-exponential growth phases. β-galactosidase activities were determined in Units per OD600 (% of WT; aprE-lacZ transcription level of the strain grown in the absence of Phr peptides [WT] is set to 100%).
Figure 2 provides a graph showing that PhrE stimulates aprE transcription. […] Zero time (T0) indicates the transition point between the exponential and post-exponential growth phases.
Overnight cultures were diluted to an optical density (OD600) of 0.1 in fresh TY medium, supplemented with Phr60 pentapeptide, as appropriate. Samples for OD600 readings and β-galactosidase activity determinations were taken at hourly intervals. The assay and the calculation of β-galactosidase activity (expressed as units per OD600) of the samples was performed as known In the art (See, Miller, Experiments In Molecular Genetics, Cold Spring Harbor Laboratory Press, NY, [1982]).
To analyze whether chromosomally-encoded Rap-Phr systems might be Involved in protease production, B. subtilis AL (bearing an aprE-lacZ transcriptional fusion), was grown in TY medium supplemented with synthetic PhrA, -C, -E, -F, -G, -H, -I, or -K pentapeptides (Table II).
In this Example, experiments conducted to further assess the effects of Rap-Phr systems on the transcription of aprE are described. The RapE-PhrE system was used as a model for two reasons. […] To determine the effect of PhrE on aprE transcription during growth, synthetic PhrE was added at two concentrations (1 and 10 µg/ml) to the medium of B. subtilis AL. […] It was also noted that in the latter case, aprE transcription seemed to be improved during all growth phases.

In the case of ARNQT [PhrA], the “aprE transcription (β-galactosidase activity, relative to wild-type)” value is reported as 100-120 % relative to wild-type.

For DRVGA [PhrI], the “aprE transcription (β-galactosidase activity, relative to wild-type)” value was 100-120 % relative to wild-type.

For EKMIG [PhrG], the “aprE transcription (β-galactosidase activity, relative to wild-type)” value was 100-120 % relative to wild-type.

In the case of ERGMT [PhrC], the “aprE transcription (β-galactosidase activity, relative to wild-type)” value is reported as ~60 % relative to wild-type.

With ERPVG [PhrK] the “aprE transcription (β-galactosidase activity, relative to wild-type)” value was 100-120 % relative to wild-type.

In the case of QRGMI [PhrF], the “aprE transcription (β-galactosidase activity, relative to wild-type)” value is reported as ~135 % relative to wild-type.

With SRNVT [PhrE] the “aprE transcription (β-galactosidase activity, relative to wild-type)” value was ~135 % relative to wild-type, the “effect on aprE transcription compared with all Phr pentapeptides tested” value (Figure 1, 10 µM pentapeptide, post-exponential growth phase) was “strongest positive effect on aprE transcription” and the “aprE transcription during growth (time course)” value (synthetic PhrE added at two concentrations (1 and 10 µg/ml) to the medium of B. subtilis AL, TY medium, 37°C, Figure 2) was “improved by the addition of PhrE only during the post-exponential growth phase in a PhrE concentration-dependent manner”.
